Assay results taken from patent publication US20200155475A1, “Transdermal Drug Delivery System” (Avro Life Sciences, Inc., priority 2017, published 2020).

What was measured:
[1] = Percentage diffusion of 4-aminopyridine through the transdermal drug delivery system over time; assay type: in vitro ADME
Method: (§1) The patch in the transdermal drug delivery system consisted of 23% (w/w) glycerol, 16% (w/w) gum Arabic, 11% (w/w) medium molecular weight chitosan, and 48% (w/w) lactic acid. The patch was prepared by casting the liquid matrix gel upon a suitable Teflon backing layer and drying for 18 hours at 55° C. The resulting diffusion profiles were obtained by conducting the same experiment three times. The patch samples indicate the number of times that the same experiment was conducted.
The patch in the transdermal drug delivery system consisted of 50% (w/w) glycerol, 14% (w/w) PVP, 18% (w/w) medium molecular weight chitosan, and 18% (w/w) lactic acid. The patch was prepared by casting the liquid matrix gel upon a suitable Teflon backing layer and drying for 3 hours at 80° C. The resulting diffusion profiles were obtained by conducting the same experiment eight times. The patch samples indicate the number of times that the same experiment was conducted.
as §1, with “36%” for “23%”, “15.3% PVP, 0.7%” for “16%”, “9.5%” for “11%”, “38.5%” for “48%”, “5” for “18”, “80°” for “55°”
The percentage diffusion of 4-aminopyridine through the transdermal drug delivery system provided herein was measured over time, using different patch compositions. […] The patch was prepared by casting the liquid matrix gel upon a suitable Teflon backing layer and drying for 18 hours at 55° C.
The patch was prepared by casting the liquid matrix gel upon a suitable Teflon backing layer and drying for 3 hours at 80° C.
The patch was prepared by casting the liquid matrix gel upon a suitable Teflon backing layer and drying for 5 hours at 80° C.

[2] = Method: (§2) Modified Franz Diffusion Cells were filled with 55 ml of phosphate buffer, and a skin simulating membrane was placed in each cell at air-water interface and secured with a holed cap. The cells were placed into a water bath and the temperature was equilibrated to 38° C. The drug-loaded patch was gently placed onto the membrane and pressed down lightly. At different time points, the drug solution was collected and replaced with fresh buffer, and ultraviolet (UV) absorbance was measured at 200-300 nm with clean quartz cuvettes, using standard curves to determine drug concentrations and cumulative drug release percentages over time.
as §2, with “The permeation or flux of several drugs transdermally delivered to the skin was measured in vitro as a function of time using an artificial skin simulating membrane attached to a Franz diffusion cell at air-water interface. […] Modified” for “Modified”

[3] = Further experiments: permeation of small molecules through the patch matrix; conditions: molecules trapped in polymer matrix

| SMILES | diffusion of drug from the patch through skin simulating membrane over time (system permeable / impermeable) [2] | permeation into skin and bloodstream through the patch matrix [3] | further results |
| --- | --- | --- | --- |
| Nc1ccncc1 [4-aminopyridine] | permeable |  | permeation and diffusion through patch over time ([1]; patch: 23% glycerol, 16% gum Arabic, 11% medium MW chitosan, 48% lactic acid, dried 18 hours at 55° C., FIG. 4): allows permeation and diffusion; permeation and diffusion through patch over time ([1]; patch: 36% glycerol, 15.3% PVP, 0.7% gum Arabic, 9.5% medium MW chitosan, 38.5% lactic acid, dried 5 hours at 80° C., FIG. 6): allows permeation and diffusion; permeation and diffusion through patch over time ([1]; patch: 50% glycerol, 14% PVP, 18% medium MW chitosan, 18% lactic acid, dried 3 hours at 80° C., FIG. 5): allows permeation and diffusion |
| O=C1CCc2ccc(OCCCCN3CCN(c4cccc(Cl)c4Cl)CC3)cc2N1 [aripiprazole, Aripiprazole] | impermeable |  |  |
| CC(NCCn1cnc2c1c(=O)n(C)c(=O)n2C)C(O)c1ccccc1 (stereo not shown) [cafedrine] |  | cannot permeate |  |
| CN(C)CCC[C@@]1(c2ccc(F)cc2)OCc2cc(C#N)ccc21.O=C(O)C(=O)O [escitalopram oxalate, Escitalopram Oxalate] | permeable |  |  |
| CC(Cc1ccccc1)NCCn1cnc2c1c(=O)n(C)c(=O)n2C (stereo not shown) [fenethylline] |  | cannot permeate |  |
| CC(=O)CCCCn1c(=O)c2c(ncn2C)n(C)c1=O [pentoxifyline] |  | cannot permeate |  |
| Cn1c(=O)c2c(ncn2CCNCC(O)c2ccc(O)c(O)c2)n(C)c1=O (stereo not shown) [theodrenaline] |  | cannot permeate |  |
